Measurements reported in patent EP0977755B1, “HETEROCYCLIC COMPOUNDS AND THEIR PREPARATION AND USE” (NOVO NORDISK A/S, priority 1997, dated 1998).
pEC50: −log10 of the molar value. Where a name gives a salt, the structure may show the parent alone. Read-outs that look alike come from different tables or passages of the source.

Target: T1, m1 muscarinic receptor (Rattus norvegicus, UniProt P08482)
T1 construct: expressed in transfected cells; host or cells: A9 L cells (mouse fibroblast line)
T1 sequence (P08482 1-460): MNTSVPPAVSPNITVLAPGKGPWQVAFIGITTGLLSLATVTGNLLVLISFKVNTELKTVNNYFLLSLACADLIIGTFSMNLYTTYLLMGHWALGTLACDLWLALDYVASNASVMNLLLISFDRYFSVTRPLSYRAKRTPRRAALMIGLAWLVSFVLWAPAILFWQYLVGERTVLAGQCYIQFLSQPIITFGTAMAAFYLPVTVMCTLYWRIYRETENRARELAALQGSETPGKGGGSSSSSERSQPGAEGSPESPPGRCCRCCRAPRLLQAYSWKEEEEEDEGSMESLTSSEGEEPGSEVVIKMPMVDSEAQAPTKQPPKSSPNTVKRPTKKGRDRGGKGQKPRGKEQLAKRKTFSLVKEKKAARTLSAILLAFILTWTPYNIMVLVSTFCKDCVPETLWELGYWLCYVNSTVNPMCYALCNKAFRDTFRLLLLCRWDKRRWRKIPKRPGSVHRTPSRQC
Test: IP hydrolysis in A9 L cells cloned with the genetic m1 muscarinic receptor
Format: cell-based, human and rat
Details: for Emax: A9L-m1, 0.75 h, percentage of total [3H]IP accumulated in the presence of 100 µM carbachol stimulation, 37°C for 45 min, read-out: % PI (efficacy); for pEC50 / EC50: IP hydrolysis, seven point curves, three separate experiments; for pEC50: read-out: EC50; for EC50: EC50, nM
Protocol: IP hydrolysis in A9 L cells cloned with the genetic m, muscarinic receptor: A9 L cells transfected with human and rat m, muscarinic receptors (Dörje et al., 1991; Jones et al., 1988), were cultured to confluence in 75-ml flasks containing Dulbecco's modified essential media. Cells were prelabeled with 1 µCi/ml of myo(2-[^3H]inositol (Amersham Inc., 16.3 Ci/mmol) for 48 hr before assaying. On the day of assay, cells were detached using a 30-sec exposure to 0.25% trypsin in 1 mM EDTA. The cells were collected by centrifugation (300 x g for 5 min) and resuspended in oxygenated HEPES buffer containing 10 mM LiCl (NaCl 142 mM, KCl 5.6 mM, CaCl2 2.2 mM, MgCl2 1 mM, NaHCO3 3.6 mM, D-glucose 5.6 mM and Na^+ HEPES 30 mM, pH 7.4). Cells were incubated at 37°C for 45 min in the presence of varying concentrations of test compounds. Total IP hydrolysis was determined using the method of Schoepp and Johnson (1988). […] Half-maximal (EC50) values were determined from the mean (±S.D.) of seven point curves determined from three separate experiments.

| Emax [%] | pEC50 | Structure (SMILES) | EC50 [nM] |
| --- | --- | --- | --- |
| 100 | 9.15 | C(#Cc1ccccc1)COc1nsnc1C1CN2CCC1C2 (racemic) [Compound 13, Exo (+-) 3-(3-(3-Phenyl-2-propyn-1-yloxy)-1.2.5-thiadlazol-4-yl)-1-azabicyclo[2 2.1]heptane, (+)-tartrate] | – |
| 100 | 9.15 | C(#Cc1cccs1)COc1nsnc1[C@H]1CN2CCC[C@H]1C2 [Compound 49, Exo (5R,6R)-6-(3-[3-(2-Thienyl)-2-propyn-1-yloxy]-1,2,5-thiadiazol-4-yl)-1-azabicyclo[3 2 1]octane, oxalate] | – |
| 97 | 7.66 | COc1cccc(C#CCOc2nsnc2[C@@H]2CN3CCC[C@H]2C3)c1 [Compound 28, Endo (5R,6S)-6-(3-(3-(3-Methoxyphenyl)-2-propyn-1-yloxy)-1,2,5-thiadiazol-4-yl)-1-azabicyclo[3.2.1]octane, (+)-tartrate] | – |
| 80 | 6.68 | C(#Cc1ccccc1)COc1nsnc1[C@H]1CN2CC[C@@H]1C2 (racemic) [Compound 1, Endo (+-) 3-(3-(3-Phenyl-2-propyn-1-yloxy)-1,2,5-thiadiazol-4-yl)-1-azabicyclo[2 2.1]heptane,(+)--tartrate] | – |
| 66 | 8.10 | COc1cccc(C#CC(Oc2nsnc2[C@H]2CN3CCC[C@H]2C3)C(C)C)c1 (stereo partly drawn) [Compound 45, Exo (5R,6R)-6-(3-(1-(3-Methoxyphenyl)-4-methyl-1-pentyn-3-yloxy)-1,2,5-thiadiazol-4-yl)-1-azabicyclo[3 2.1]octane, (+)-tartrate] | – |
| – | – | O=C1CCCN1CC#CCN1CCCC1 [oxotremorine, reference compound] | 16300 |
| 81 | 7.49 | Clc1ccc(C#CCOc2nsnc2[C@H]2CN3CCC[C@H]2C3)cc1 [Compound 44, Exo (5R,6R)-6-(3-(3-(4-Chlorophenyl)-2-propyn-1-yloxy)-1,2,5-thiadiazol-4-yl)-1-azabicyclo[3.2.1]octane, (+)-tartrate] | – |
| – | – | C(#Cc1ccccc1)COc1nsnc1C1CN2CCC1CC2 (racemic) [Compound 53, (+-)3-(3-(3-Phenyl-2-propyn-1-yloxy)-1,2,5-thiadiazol-4-yl)-1-azabicyclo[2.2.2]octane, oxalate] | 13 |
| 99 | 7.92 | FC(F)(F)c1cccc(C#CCOc2nsnc2[C@H]2CN3CCC[C@H]2C3)c1 [Compound 42, Exo (5R,6R)-6-(3-(3-(3-Trifluoromethylphenyl)-2-propyn-1-yloxy)-1,2,5-thiadiazol-4-yl)-1-azabicyclo[3.2.1]octane, (+)-tartrate] | – |
| 81 | 7.02 | Fc1ccc(C#CCOc2nsnc2[C@H]2CN3CC[C@@H]2C3)cc1 (single isomer, unassigned) [Compound 3, Endo (α)-3-(3-(3-(4-Fluorophenyl)-2-propyn-1-yloxy)-1.2.5-thiadiazol-4-yl)-1-azabicyclo[2.2.1]heptane.(+)-tartrate] | – |
| 74 | 5.74 | Fc1ccc(C#CCOc2nsnc2[C@H]2CN3CC[C@@H]2C3)cc1 (racemic) [Compound 2, Endo (+-) 3-(3-(3-(4-Fluorophenyl)-2-propyn-1-yloxy)-1,2,5-thiadiazol-4-yl)-1-azabicyclo[2.2.1]heptane,(+)-tartrate] | – |
| 101 | 8.70 | C(#Cc1ccsc1)COc1nsnc1[C@H]1CN2CCC[C@H]1C2 [Compound 50, Exo (5R,6R)-6-(3-[3-(3-Thienyl)-2-propyn-1-yloxy]-1,2,5-thiadiazol-4-yl)-1-azabicyclo[3.2.1]octane, oxalate] | – |
